Measurements reported in US8124793B2, “Derivatives of ethylene methanedisulfonate as cancer chemotherapeutic agents” (priority 2007, dated 2012).

Assays:
Format in all cases: cell-based
[1] = tested on: RPMI-8226; experiment: NCI screen, growth of human tumor cells: Leukemia RPMI-8226; conditions: RPMI-8226 (Leukemia), 10^−4 molar
Summary of the method: (§1)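 At least 60 data points describe each compound tested by NCI. Cancer type, molar concentration in the screen and percent growth make up the recorded data.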

[2] = tested on: NCI-H226; experiment: NCI screen, growth of human tumor cells: Non-Small Cell Lung NCI-H226; conditions: NCI-H226, 10^−4 molar
Summary of the method: as §1

[3] = tested on: BT-549; experiment: NCI screen, growth of human tumor cells: Breast Cancer BT-549; conditions: BT-549 (Breast Cancer), 10^−4 molar
Summary of the method: as §1

[4] = tested on: NCI-H23; experiment: NCI screen, growth of human tumor cells: Non-Small Cell Lung NCI-H23; conditions: NCI-H23, 10^−4 molar
Summary of the method: as §1

[5] = tested on: UACC-62; experiment: NCI screen, growth of human tumor cells: Melanoma UACC-62; conditions: UACC-62, 10^−4 molar
Summary of the method: as §1

[6] = tested on: M14; experiment: NCI screen, growth of human tumor cells: Melanoma M14; conditions: M14 (Melanoma), 10^−4 molar
Summary of the method: as §1

[7] = tested on: SK-MEL-2; experiment: NCI screen, growth of human tumor cells: Melanoma SK-MEL-2; conditions: SK-MEL-2 (Melanoma), 10^−4 molar
Protocol: (§2) In the NCI screening process, each compound was tested and described by a minimum of 60 data points. The test data include, but are not limited to the type of cancer, the molar concentration used in the screen, and the percent growth of the cancer. In some cases, NMR and elemental analysis were used for structural assignment.

[8] = tested on: HS 578T; experiment: NCI screen, growth of human tumor cells: Breast Cancer HS 578T; conditions: HS 578T (Breast Cancer), 10^−4 molar
Summary of the method: as §1

[9] = tested on: MCF 7; experiment: NCI screen, growth of human tumor cells: Breast Cancer MCF 7; conditions: MCF 7 (Breast Cancer), 10^−4 molar
Protocol: as §2

[10] = tested on: SN12C; experiment: NCI screen, growth of human tumor cells: Renal Cancer SN12C; conditions: SN12C (Renal Cancer), 10^−4 molar
Summary of the method: as §1

[11] = tested on: HOP-62; experiment: NCI screen, growth of human tumor cells: Non-Small Cell Lung HOP-62; conditions: HOP-62 (Non-Small Cell Lung), 10^−4 molar
Summary of the method: as §1

[12] = tested on: human cancer cells; experiment: NCI screen summary over the cancers tested (negative growth of human cancer cells); conditions: cancers with negative growth / cancers tested
Protocol: as §2
The derivatives in the tables are grouped using the same category as in the tables 1-6.

[13] = tested on: HT29; experiment: NCI screen, growth of human tumor cells: Colon Cancer HT29
Protocol: as §2

[14] = tested on: AS49/ATCC; experiment: NCI screen, growth of human tumor cells: Non-Small Cell Lung AS49/ATCC; conditions: AS49/ATCC (Non-Small Cell Lung), 10^−4 molar
Protocol: as §2

[15] = tested on: IGROVI; experiment: NCI screen, growth of human tumor cells: Ovarian Cancer IGROVI; conditions: IGROVI (Ovarian Cancer), 10^−4 molar
Protocol: as §2

[16] = tested on: COLO205; experiment: NCI screen, growth of human tumor cells: Colon Cancer COLO205; conditions: COLO205, 10^−4 molar
Summary of the method: as §1

[17] = tested on: SK-OV-3; experiment: NCI screen, growth of human tumor cells: Ovarian Cancer SK-OV-3; conditions: SK-OV-3 (Ovarian Cancer), 10^−4 molar
Protocol: as §2

[18] = tested on: ACHN; experiment: NCI screen, growth of human tumor cells: Renal Cancer ACHN; conditions: ACHN (Renal Cancer), 10^−4 molar
Summary of the method: as §1

[19] = tested on: OVCAR-5; experiment: NCI screen, growth of human tumor cells: Ovarian Cancer OVCAR-5; conditions: OVCAR-5, 10^−4 molar
Protocol: as §2

[20] = tested on: CCRF-CEM; experiment: NCI screen, growth of human tumor cells: Leukemia CCRF-CEM; conditions: CCRF-CEM (Leukemia), 10^−4 molar
Summary of the method: as §1

[21] = tested on: KM12; experiment: NCI screen, growth of human tumor cells: Colon Cancer KM12; conditions: KM12 (Colon Cancer), 10^−4 molar
Summary of the method: as §1

[22] = tested on: RXF-393; experiment: NCI screen, growth of human tumor cells: Renal Cancer RXF-393; conditions: RXF-393 (Renal Cancer), 10^−4 molar
Summary of the method: as §1

[23] = tested on: OVCAR-3; experiment: NCI screen, growth of human tumor cells: Ovarian Cancer OVCAR-3; conditions: OVCAR-3 (Ovarian Cancer), 10^−4 molar
Summary of the method: as §1

[24] = tested on: UACC-257; experiment: NCI screen, growth of human tumor cells: Melanoma UACC-257; conditions: UACC-257 (Melanoma), 10^−4 molar
Protocol: as §2

[25] = tested on: NCI-H322M; experiment: NCI screen, growth of human tumor cells: Non-Small Cell Lung NCI-H322M; conditions: NCI-H322M (Non-Small Cell Lung), 10^−4 molar
Protocol: as §2

[26] = tested on: U-251; experiment: NCI screen, growth of human tumor cells: CNS Cancer U-251; conditions: U-251 (CNS Cancer), 10^−4 molar
Summary of the method: as §1

[27] = tested on: MALME-3M; experiment: NCI screen, growth of human tumor cells: Melanoma MALME-3M; conditions: MALME-3M, 10^−4 molar
Protocol: as §2

[28] = tested on: SF-539; experiment: NCI screen, growth of human tumor cells: CNS Cancer SF-539; conditions: SF-539, 10^−4 molar
Summary of the method: as §1

[29] = tested on: DU-145; experiment: NCI screen, growth of human tumor cells: Prostate Cancer DU-145; conditions: DV-145, 10^−4 molar
Summary of the method: as §1

[30] = tested on: NCI-H522; experiment: NCI screen, growth of human tumor cells: Non-Small Cell Lung NCI-H522; conditions: NCI-H522, 10^−4 molar
Protocol: as §2

[31] = tested on: SK-MEL-5; experiment: NCI screen, growth of human tumor cells: Melanoma SK-MEL-5; conditions: SK-MEL-5, 10^−4 molar
Summary of the method: as §1

[32] = tested on: SF-295; experiment: NCI screen, growth of human tumor cells: CNS Cancer SF-295; conditions: SF-295, 10^−4 molar
Summary of the method: as §1

[33] = tested on: SF-268; experiment: NCI screen, growth of human tumor cells: CNS Cancer SF-268; conditions: SF-268 (CNS Cancer), 10^−4 molar
Summary of the method: as §1

[34] = tested on: SK-MEL-28; experiment: NCI screen, growth of human tumor cells: Melanoma SK-MEL-28
Protocol: as §2

[35] = tested on: SR; experiment: NCI screen, growth of human tumor cells: Leukemia SR; conditions: SR (Leukemia), 10^−4 molar
Summary of the method: as §1

[36] = tested on: HCT-116; experiment: NCI screen, growth of human tumor cells: Colon Cancer HCT-116; conditions: HCT-116 (Colon Cancer), 10^−4 molar
Summary of the method: as §1

For `CC1=C(CC2(C(=O)C(F)(F)C(F)(F)C(F)(F)F)S(=O)(=O)OCCOS2(=O)=O)C(=O)c2ccccc2C1=O` [NSC 720683, ethylene perfluorobutyril-(3-methyl-1,4-naphtho-2-quinoyl)-1,1-ethanedisulfonate], the “percent of growth of human tumor cells” value [1] was 28%, the “% Growth” value [2] was −68% and the “percent of growth of human tumor cells” value [3] was −50%. The “% Growth” value [4] was −75%, the “% Growth” value [5] was −85% and the “percent of growth of human tumor cells” value [6] was −56%. The “percent of growth of human tumor cells” value [7] was −57%, the “percent of growth of human tumor cells” value [8] was −14% and the “percent of growth of human tumor cells” value [9] was −24%. For the same compound, the “percent of growth of human tumor cells” value [10] was −37%, the “percent of growth of human tumor cells” value [11] was −28% and the “Percentage of cancers showing negative growth cancers tested” value ([12]; 10^−5 M conc.) was 100%. The “Percentage of cancers showing negative growth cancers tested” value ([12]; 10^−6 M conc.) was 100%, the “% Growth” value ([13]; HT-29, 10^−4 molar) was −100% and the “% Growth” value ([13]; HT-29, 10^−5 molar) was −37%. For the same compound, the “% Growth” value ([13]; HT-29, 10^−6 molar) was −6%, the “% Growth” value ([13]; HT-29, 10^−7 molar) was 23% and the “percent of growth of human tumor cells” value [14] was −45%. The “percent of growth of human tumor cells” value [15] was 27%, the “% Growth” value [16] was −84% and the “percent of growth of human tumor cells” value [17] was 24%. For the same compound, the “percent of growth of human tumor cells” value [18] was −27%, the “% Growth” value [19] was −71% and the “percent of growth of human tumor cells” value [20] was 5%. For the same compound, the “percent of growth of human tumor cells” value [21] was 26%, the “percent of growth of human tumor cells” value [22] was 9% and the “percent of growth of human tumor cells” value [23] was 30%. The “percent of growth of human tumor cells” value [24] was −18%, the “percent of growth of human tumor cells” value [25] was 25% and the “percent of growth of human tumor cells” value [26] was 12%. For the same compound, the “% Growth” value [27] was −87%, the “% Growth” value [28] was −67% and the “% Growth” value [29] was −100%. For the same compound, the “% Growth” value [30] was −68%, the “% Growth” value [31] was −95% and the “% Growth” value [32] was −70%. The “percent of growth of human tumor cells” value [33] was 1%, the “% Growth” value ([34]; SK-MEL-28, 10^−4 molar) was −85% and the “% Growth” value ([34]; SK-MEL-28, 10^−5 molar) was −55%. For the same compound, the “% Growth” value ([34]; SK-MEL-28, 10^−6 molar) was −31%, the “% Growth” value ([34]; SK-MEL-28, 10^−7 molar) was 31% and the “% Growth” value ([34]; SK-MEL-28, 10^−8 molar) was 74%. For the same compound, the “percent of growth of human tumor cells” value [35] was −22% and the “percent of growth of human tumor cells” value [36] was 22%.
